{
  "source": "paper PMC2187893",
  "about": "(The Journal of Experimental Medicine, 1990)",
  "format_in_all_cases": "cell-based",
  "key": {"[1]": {"tested_on": "human peripheral blood T cells", "experiment": "Naloxone inhibition of T cell migration to stimuli", "details": "for Effect of naloxone on specific migration (percent response): naloxone-treated/nontreated x 100%; for Specific migration with naloxone / Specific migration without naloxone: spontaneous locomotion subtracted"}, "[2]": {"tested_on": "human peripheral blood T lymphocytes", "experiment": "T cell migration assay in microchemotaxis chamber", "details": "peptides at 10 -5 M in lower wells, 1.5 h at 37C, Fig. 3; Dunnett's test"}, "[3]": {"tested_on": "human peripheral blood T lymphocytes", "experiment": "Migration assay with or without concentration gradient"}, "[4]": {"details": "doses between 10-13 and 10^-9 M, migration only when a gradient existed"}, "[5]": {"details": "donor 5, stimulus at 10^-5 M, naloxone 10^-5 M"}, "[6]": {"details": "donor 4, stimulus at 10^-9 M, naloxone 10^-5 M"}},
  "data": [
    {"compound": "C=CCN1CC[C@]23c4c5ccc(O)c4O[C@H]2C(=O)CC[C@@]3(O)[C@H]1C5", "note": "[naloxone, Naloxone]", "values": [
      {"measurement": "effect of naloxone on locomotion caused by IL-2", "setting": "[1]; naloxone 10^-5 M, cells pretreated 15 h at 37C, IL-2 100 U/ml, Table 1", "result": "no effect"},
      {"measurement": "effect of naloxone on T cell migration in response to MET-ENK or LEU-ENK", "setting": "[1]; naloxone 10^-5 M, cells pretreated 15 h at 37C, Table 1", "result": "inhibited"}
    ]},
    {"compound": "(D-Ala2, o- Leu']-enkephalin [DADLE]", "values": [
      {"measurement": "T cell migration response compared with spontaneous locomotion", "setting": "[2]", "result": "greater then spon- taneous locomotion"}
    ]},
    {"compound": "/3-END: purified human beta-endorphin from Calbiochem-Behring Corp.; endogenous opioid neurohormone (YGGFMTSEKSQTPLVTLFKNAIIKNAYKKGE; Beta-endorphin; UniProt P01189 237-267, looked up)", "values": [
      {"measurement": "T cell migration without gradient (stimulus in upper and lower chambers)", "setting": "[3]; 10-9, 10^-7 and 10^-5 M, single donor, Fig. 2, p >0.05, NS", "result": "equivalent to the spontaneous locomotion"},
      {"measurement": "type of locomotion stimulated", "setting": "[3]; beta-END, Fig. 2, 10^-9 to 10^-5 M", "result": "chemotactic"}
    ]},
    {"compound": "H-Gly-Gly-Phe-Leu-OH [DesTyr-LEU-ENK]", "values": [
      {"measurement": "T cell migration response compared with spontaneous locomotion", "setting": "[2]", "result": "no effect on T cell migration"}
    ]},
    {"compound": "Tyr-Gly-Gly-Phe-Leu [LEU-ENK, leucine-enkephalin]", "values": [
      {"measurement": "T cell migration response compared with spontaneous locomotion", "setting": "[2]", "result": "stimulatory"},
      {"measurement": "type of locomotion stimulated", "setting": "[3]; [4]", "result": "chemotactic"},
      {"measurement": "Effect of naloxone on specific migration (percent response)", "setting": "[1]; [5]", "result": 18.4, "unit": "%"},
      {"measurement": "Specific migration with naloxone", "setting": "[1]; [5]", "result": 582},
      {"measurement": "Specific migration without naloxone", "setting": "[1]; donor 5, stimulus at 10^-5 M", "result": "3,171"}
    ]},
    {"compound": "Tyr-Gly-Gly-Phe-Met [MET-ENK, methionine-enkephalin]", "values": [
      {"measurement": "type of locomotion stimulated", "setting": "[3]; [4]", "result": "chemotactic"},
      {"measurement": "Specific migration with naloxone", "setting": "[1]; donor 4, stimulus at 10- \" M, naloxone 10^-5 M", "result": 2},
      {"measurement": "Specific migration without naloxone", "setting": "[1]; donor 4, stimulus at 10- \" M", "result": 830},
      {"measurement": "Effect of naloxone on specific migration (percent response)", "setting": "[1]; [6]", "result": 12.8, "unit": "%"},
      {"measurement": "Specific migration with naloxone", "setting": "[1]; [6]", "result": 335},
      {"measurement": "Effect of naloxone on specific migration (percent response)", "setting": "[1]; [5]", "result": 24.8, "unit": "%"},
      {"measurement": "Specific migration with naloxone", "setting": "[1]; [5]", "result": 768},
      {"measurement": "Specific migration without naloxone", "setting": "[1]; donor 5, stimulus at 10^-5 M", "result": "3,093"}
    ]},
    {"compound": "[D-Ser2Leu']- enkephalin Thb [DSLET]", "values": [
      {"measurement": "T cell migration response compared with spontaneous locomotion", "setting": "[2]", "result": "greater then spon- taneous locomotion"}
    ]},
    {"compound": "[n-Ala-2,N-Me-Phe4Met(o)4-01]-enkephalin [FK 33-824]", "values": [
      {"measurement": "T cell migration response compared with spontaneous locomotion", "setting": "[2]", "result": "greater then spon- taneous locomotion"}
    ]},
    {"compound": "[o-Ala2 ,MePhe4,Gly(ol)'j-enkephalin [DAGO]", "values": [
      {"measurement": "T cell migration response compared with spontaneous locomotion", "setting": "[2]", "result": "greater then spon- taneous locomotion"}
    ]},
    {"compound": "cyclic [p-Pen2,n-Pen']-enkephalin [DPDPE]", "values": [
      {"measurement": "T cell migration response compared with spontaneous locomotion", "setting": "[2]", "result": "greater then spon- taneous locomotion"}
    ]}
  ]
}
